Laboratory results reported in PubChem BioAssay (NCI).
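All cell lines were grown in 96-well plates and treated with compound for 48 hours. GI50 marks 50% less growth. TGI is the concentration that stops growth completely.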

What was measured:
Experiment in all cases: growth of human tumour cells (NCI), 48 h
[1] = tested on: SF-268 CNS
[2] = tested on: SNB-75 CNS
[3] = tested on: ACHN renal
[4] = tested on: U251 CNS
[5] = tested on: SK-MEL-28 melanoma
[6] = tested on: SK-MEL-2 melanoma
[7] = tested on: UO-31 renal
[8] = tested on: COLO 205 colon
[9] = tested on: OVCAR-8 ovarian
[10] = tested on: MALME-3M melanoma

O=S1Nc2c(Cl)cc(Cl)c3c(Cl)cc(Cl)c(c23)N1
TGI [1]: > 100 µM
TGI [2]: 55.3 µM
TGI [3]: 73.8 µM
TGI [4]: 69.6 µM
TGI [5]: > 100 µM
TGI [6]: > 100 µM
TGI [7]: > 100 µM
TGI [8]: > 100 µM
TGI [9]: > 100 µM
TGI [10]: > 100 µM

COc1cccc(C2c3cc4c(cc3OC(N3CCCC3)C2C)OCO4)c1O (stereo not given)
TGI [1]: 70.1 µM
TGI [2]: 8.29 µM
TGI [3]: > 88.7 µM
TGI [4]: 25.8 µM
TGI [5]: 81.1 µM
TGI [6]: 30.4 µM
TGI [7]: 46.7 µM
TGI [8]: 10.5 µM
TGI [9]: 42 µM
TGI [10]: 58.2 µM

O=C(O)C(Cl)(c1ccccc1)c1ccccc1
TGI [1]: > 100 µM
TGI [2]: > 100 µM
TGI [3]: > 100 µM
TGI [4]: > 100 µM
TGI [5]: > 100 µM
TGI [6]: > 100 µM
TGI [7]: > 100 µM
TGI [8]: > 100 µM
TGI [9]: > 100 µM
TGI [10]: > 100 µM

CC(C)(C)CC(C)(C)NCc1cc(C(C)(C)C)cc(CNC(C)(C)CC(C)(C)C)c1O
GI50 [1]: 5.4 µM
TGI [1]: 18.7 µM
GI50 [2]: 3.99 µM
TGI [2]: 15.1 µM
GI50 [3]: 2.81 µM
TGI [3]: 10.8 µM
GI50 [4]: 2.86 µM
TGI [4]: 12.2 µM
GI50 [5]: 5.24 µM
TGI [5]: 17.6 µM
GI50 [6]: 2.84 µM
TGI [6]: 6.6 µM
GI50 [7]: 1.92 µM
TGI [7]: 9.91 µM
GI50 [8]: 1.41 µM
TGI [8]: 2.8 µM
GI50 [9]: 3.25 µM
TGI [9]: 12.4 µM
GI50 [10]: 1.85 µM
TGI [10]: 4 µM

Cc1cc(C)c(NC(=S)NC(=O)c2ccccc2)cc1C
TGI [1]: > 100 µM
TGI [2]: > 100 µM
TGI [3]: > 100 µM
TGI [4]: > 100 µM
TGI [5]: > 100 µM
TGI [6]: > 100 µM
TGI [7]: > 100 µM
TGI [8]: > 100 µM
TGI [9]: > 100 µM
TGI [10]: > 100 µM

OCC(O)c1nc2ccc3[nH]ncc3c2c2c1CCCC2 (stereo not given)
GI50 [1]: 1.22 µM
TGI [1]: 4.64 µM
GI50 [2]: 0.849 µM
TGI [2]: 1.6 µM
GI50 [3]: 1.13 µM
TGI [3]: > 50 µM
GI50 [4]: 1.65 µM
TGI [4]: > 50 µM
GI50 [5]: 1.22 µM
TGI [5]: 3.76 µM
GI50 [6]: 1.18 µM
TGI [6]: 2.99 µM
GI50 [7]: 1.55 µM
TGI [7]: > 50 µM
GI50 [8]: 1.23 µM
TGI [8]: 3.43 µM
GI50 [9]: 1.45 µM
TGI [9]: > 50 µM
GI50 [10]: 1.67 µM
TGI [10]: 4.82 µM

COC(=O)Cc1ccc(Oc2cnc3cc(F)c(F)cc3n2)cc1
GI50 [1]: > 100 µM
TGI [1]: > 100 µM
GI50 [2]: > 100 µM
TGI [2]: > 100 µM
GI50 [3]: > 100 µM
TGI [3]: > 100 µM
GI50 [4]: > 100 µM
TGI [4]: > 100 µM
GI50 [5]: > 100 µM
TGI [5]: > 100 µM
GI50 [6]: > 100 µM
TGI [6]: > 100 µM
GI50 [7]: > 100 µM
TGI [7]: > 100 µM
GI50 [8]: > 100 µM
TGI [8]: > 100 µM
GI50 [9]: > 100 µM
TGI [9]: > 100 µM
GI50 [10]: > 100 µM
TGI [10]: > 100 µM
